In brackets after ≈: the same amount, converted by molar mass. Activity calls are given as the source filed them. The calls are words filed in the database; no cut-off is given here.
Tests used:
[1] = system: Enterococcus faecium; test: Inhibition of vancomycin-resistance in Enterococcus faecium ATCC 51559 assessed as increase in vanZ expression at 2 ug/ml measured after 1 hr by qRT-PCR analysis; format: functional; details: dose 2.0 µg/ml
[2] = Hemolytic activity in human RBC at 50 ug/ml; format: toxicity, cell-based, Erythrocyte; details: red blood cells (erythrocytes), at 50 µg/mL, read-out: Activity
[3] = system: Enterococcus faecium; test: Induction of membrane-permeabilization in Enterococcus faecium ATCC 51559 at 8 ug/ml measured after 1 hr by PI staining based flow cytometry analysis; format: functional; details: dose 8.0 µg/ml
[4] = system: Enterococcus faecium; test: Inhibition of vancomycin-resistance in Enterococcus faecium ATCC 51559 assessed as increase in vanH expression at 2 ug/ml measured after 1 hr by qRT-PCR analysis; format: functional; details: dose 2.0 µg/ml
[5] = system: Enterococcus faecium; test: Antibiofilm activity against Vancomycin-resistant Enterococcus faecium ATCC 51559 assessed as log reduction in colony forming unit at 32 ug/ml incubated for 12 hrs by SYTO9 and PI staining based fluorescence assay; format: functional; details: dose 32 µg/ml
[6] = Induction of membrane-permeabilization in Enterococcus faecium ATCC 51559 at 4 ug/ml measured after 1 hr by PI staining based flow cytometry analysis; details: at 4 µg/mL
[7] = system: Enterococcus faecium; test: Inhibition of vancomycin-resistance in Enterococcus faecium ATCC 51559 assessed as increase in vanS expression at 2 ug/ml measured after 1 hr by qRT-PCR analysis; format: functional; details: dose 2.0 µg/ml
[8] = system: Enterococcus faecium; test: Inhibition of vancomycin-resistance in Enterococcus faecium ATCC 51559 assessed as reduction in vanY expression at 2 ug/ml incubated for 1 hr measured after 7 days in presence of vancomycin by qRT-PCR analysis; format: functional; details: dose 2.0 µg/ml
[9] = system: Mus musculus; test: Antimicrobial activity against Vancomycin-resistant Enterococcus faecium ATCC 51559 induced wound in BALB/c mouse assessed as log reduction in colony forming unit at 40 mg/kg administered topically 3 times daily for 3 days; format: functional; details: route top, time 3 day
[10] = system: Enterococcus faecium; test: Bactericidal activity against Vancomycin-resistant Enterococcus faecium ATCC 51559 assessed as inhibition of bacterial growth at 4 to 16 ug/ml measured upto 24 hrs by time-kill assay; format: functional, organism-based; details: dose 4-16 µg/ml
[11] = system: Enterococcus faecium; test: Inhibition of vancomycin-resistance in Enterococcus faecium ATCC 51559 assessed as increase in vanR expression at 2 ug/ml measured after 1 hr by qRT-PCR analysis; format: functional; details: dose 2.0 µg/ml
[12] = system: Enterococcus faecium; test: Induction of reactive oxygen species generation in Enterococcus faecium ATCC 51559 incubated for 1 hr by DCFH-DA based fluorescent microscopy; format: functional, organism-based
[13] = system: Enterococcus faecium; test: Inhibition of vancomycin-resistance in Enterococcus faecium ATCC 51559 assessed as increase in vanA expression at 2 ug/ml measured after 1 hr by qRT-PCR analysis; format: functional; details: dose 2.0 µg/ml
[14] = system: Enterococcus faecium; test: Inhibition of vancomycin-resistance in Enterococcus faecium ATCC 51559 assessed as reduction in vanZ expression at 2 ug/ml incubated for 1 hr measured after 7 days in presence of vancomycin by qRT-PCR analysis; format: functional; details: dose 2.0 µg/ml
[15] = system: Enterococcus faecium; test: Antimicrobial activity against Enterococcus faecium assessed as growth inhibition after 14 to 16 hrs by CLSI based broth dilution method; format: functional; details: time 14-16 hrs
[16] = system: Enterococcus faecium; test: Antimicrobial activity against Vancomycin-resistant Enterococcus faecium ATCC 51559 assessed as growth inhibition after 14 to 16 hrs by CLSI based broth dilution method; format: functional; details: time 14-16 hrs
[17] = system: Enterococcus faecium; test: Antimicrobial activity against vancomycin-susceptible Enterococcus faecium induced wound in BALB/c mouse assessed as log reduction in colony forming unit at 40 mg/kg administered topically 3 times daily for 3 days; format: functional, organism-based; details: route top, time 3.0 day
[18] = system: Cell membrane; test: Disruption of membrane in Enterococcus faecium ATCC 51559 at 4 to 16 ug/ml measured after 1 hr by SYTO9/PI staining based fluorometric analysis; format: subcellular; details: dose 4-16 µg/ml
[19] = system: Cell membrane; test: Disruption of membrane in Enterococcus faecium ATCC 51559 at 4 ug/ml by SYTO9/PI staining based fluorometric analysis; details: dose 4.0 µg/ml, time 1-6 hrs, TDE = time-dependent effect
[20] = system: Staphylococcus aureus; test: Antimicrobial activity against Staphylococcus aureus ATCC 25923 assessed as growth inhibition after 14 to 16 hrs by CLSI based broth dilution method; format: functional; details: time 14-16 hrs
[21] = system: Enterococcus faecium; test: Inhibition of vancomycin-resistance in Enterococcus faecium ATCC 51559 assessed as increase in vanY expression at 2 ug/ml measured after 1 hr by qRT-PCR analysis; format: functional; details: dose 2.0 µg/ml
[22] = system: Enterococcus faecium; test: Inhibition of vancomycin-resistance in Enterococcus faecium ATCC 51559 assessed as reduction in vanA expression at 2 ug/ml incubated for 1 hr measured after 7 days in presence of vancomycin by qRT-PCR analysis; format: functional; details: dose 2.0 µg/ml
[23] = system: Enterococcus faecium; test: Resistance development in vancomycin-resistance Enterococcus faecium ATCC 51559 assessed as decrease CFU measured in presence of vancomycin; format: functional, organism-based
[24] = system: Enterococcus faecium; test: Membrane permeabilization in Enterococcus faecium ATCC 51559 at 16 ug/ml measured after 1 hr by PI staining based flow cytometry analysis; format: functional; details: dose 16 µg/ml
[25] = Cytotoxicity against mouse LLC cells assessed as reduction in cell viability; format: toxicity, cell-based; details: LLC (3LL) cells
[26] = system: Enterococcus faecium; test: Antibiofilm activity against Vancomycin-resistant Enterococcus faecium ATCC 51559 assessed as log reduction in colony forming unit at 16 ug/ml incubated for 12 hrs by SYTO9 and PI staining based fluorescence assay; format: functional; details: dose 16 µg/ml
[27] = system: Enterococcus faecium; test: Inhibition of vancomycin-resistance in Enterococcus faecium ATCC 51559 assessed as reduction in vanR expression at 2 ug/ml measured after 1 hr in presence of vancomycin by qRT-PCR analysis; format: functional; details: dose 2.0 µg/ml
[28] = system: Enterococcus faecium; test: Inhibition of vancomycin-resistance in Enterococcus faecium ATCC 51559 assessed as reduction in vanH expression at 2 ug/ml incubated for 1 hr measured after 7 days in presence of vancomycin by qRT-PCR analysis; format: functional; details: dose 2.0 µg/ml
[29] = system: Enterococcus faecium; test: Inhibition of vancomycin-resistance in Enterococcus faecium ATCC 51559 assessed as reduction in vanS expression at 2 ug/ml measured after 1 hr in presence of vancomycin by qRT-PCR analysis; format: functional; details: dose 2.0 µg/ml
[30] = system: Cell membrane; test: Induction of membrane disruption in Vancomycin-resistant Enterococcus faecium ATCC 51559 at 4 to 16 ug/ml measured after 15 mins by DiSC2(5) dye based multimode plate reader assay; format: functional, subcellular; details: dose 4-16 µg/ml
[31] = system: Enterococcus faecium; test: Inhibition of vancomycin-resistance in Enterococcus faecium ATCC 51559 assessed as reduction in vanX expression at 2 ug/ml incubated for 1 hr measured after 7 days in presence of vancomycin by qRT-PCR analysis; format: functional; details: dose 2.0 µg/ml
[32] = system: Enterococcus faecium; test: Antibiofilm activity against Vancomycin-resistant Enterococcus faecium ATCC 51559 assessed as log reduction in colony forming unit incubated for 12 hrs by SYTO9 and PI staining based fluorescence assay; format: functional, organism-based; details: dose 4-16 µg/ml, DDE = dose-dependent effect
[33] = system: Enterococcus faecium; test: Inhibition of vancomycin-resistance in Enterococcus faecium ATCC 51559 assessed as increase in vanX expression at 2 ug/ml measured after 1 hr in presence of vancomycin by qRT-PCR analysis; format: functional; details: dose 2.0 µg/ml
[34] = system: Staphylococcus aureus; test: Antimicrobial activity against methicillin-resistant Staphylococcus aureus ATCC 33591 assessed as growth inhibition after 14 to 16 hrs by CLSI based broth dilution method; format: functional; details: time 14-16 hrs
[35] = system: Enterococcus faecium; test: Antibiofilm activity against Vancomycin-resistant Enterococcus faecium ATCC 51559 assessed as log reduction in colony forming unit at 16 ug/ml by SYTO9 and PI staining based fluorescence assay; format: functional, organism-based; details: dose 16.0 µg/ml, time 1-6 hrs, TDE = time-dependent effect
[36] = system: Enterococcus faecium; test: Antibiofilm activity against Vancomycin-resistant Enterococcus faecium ATCC 51559 assessed as log reduction in colony forming unit at 16 ug/ml incubated for 3 hrs by SYTO9 and PI staining based fluorescence assay; format: functional; details: dose 16 µg/ml
[37] = system: Enterococcus faecium; test: Development of drug resistance in vancomycin-resistant Enterococcus faecium ATCC 51559 assessed as increase in TN1546 expression measured after 7 days in presence of vancomycin; format: functional, organism-based; details: time 7.0 day
[38] = system: Enterococcus faecium; test: Resistance development in vancomycin-susceptible Enterococcus faecium assessed as vancomycin MIC99 at 2 ug/ml measured after 110 vancomycin passages; format: functional, organism-based; details: dose 2.0 µg/ml
[39] = system: Enterococcus faecium; test: Development of drug resistance in vancomycin-resistant Enterococcus faecium ATCC 51559 assessed as increase in TN1546 expression measured after 7 days; format: functional; details: time 7 day

CC(C)C(N)C(=O)NCC(=O)O[C@@H]1CC[C@@]2(C)[C@@H](C1)C[C@@H](OC(=O)CNC(=O)C(N)C(C)C)[C@@H]1[C@@H]2C[C@H](OC(=O)CNC(=O)C(N)C(C)C)[C@]2(C)[C@@H]([C@H](C)CCC(=O)NCc3cn(CCCn4cc(CNC(=O)CC[C@@H](C)[C@H]5CC[C@H]6[C@@H]7[C@H](OC(=O)CNC(=O)C(N)C(C)C)C[C@@H]8C[C@H](OC(=O)CNC(=O)C(N)C(C)C)CC[C@]8(C)[C@H]7C[C@H](OC(=O)CNC(=O)C(N)C(C)C)[C@]56C)nn4)nn3)CC[C@@H]12.Cl.Cl.Cl.Cl.Cl.Cl (stereo not given in full)
Activity [1]: Active | hemolysis at 50 ug/ml [2]: 5% | Activity [3]: 90% | Activity [4]: Active | log(activity) [5]: 5 | Activity [6]: 90% | Activity [7]: Active | Activity [8]: Active | log(activity) [9]: 1 | Activity [10]: Active | Activity [11]: Active | Activity [12]: Active | Activity [13]: Active | Activity [14]: Active | MIC99 [15]: 16 µg/mL | MIC99 [16]: 4 µg/mL | Activity [17]: Active | Activity [18]: Active | Activity [19]: Tde | MIC99 [20]: 64 µg/mL | Activity [21]: Active | Activity [22]: Active | Activity [23]: Active | Activity [24]: 90% | IC50 [25]: 414 µg/mL | log(activity) [26]: 3 | Activity [27]: Active | Activity [28]: Active | Activity [29]: Active | Activity [30]: Active | Activity [31]: Active | Activity [32]: Dde | Activity [33]: Active | MIC99 [34]: 16 µg/mL | Activity [35]: Tde | log(activity) [36]: 3 | Activity [37]: Active

CN[C@H](CC(C)C)C(=O)N[C@H]1C(=O)N[C@@H](CC(N)=O)C(=O)N[C@H]2C(=O)N[C@H]3C(=O)N[C@H](C(=O)N[C@H](C(=O)O)c4cc(O)cc(O)c4-c4cc3ccc4O)[C@H](O)c3ccc(c(Cl)c3)Oc3cc2cc(c3O[C@@H]2O[C@H](CO)[C@@H](O)[C@H](O)[C@H]2O[C@H]2C[C@](C)(N)[C@H](O)[C@H](C)O2)Oc2ccc(cc2Cl)[C@H]1O [VANCOMYCIN]
Activity [38]: Active | log(activity) [9]: 2 | MIC99 [15]: 4 µg/mL (≈ 2.76 µM) | MIC99 [16]: > 128 µg/mL | MIC99 [20]: 8 µg/mL (≈ 5.52 µM) | fold change (FC) [39]: 3 | IC50 [25]: > 1000 µM | MIC99 [34]: 2 µg/mL (≈ 1.38 µM)
